Test results: paper PMC10002375, “Synthesis of 3-(2-Alkylthio-4-chloro-5-methylbenzenesulfonyl)-2-(1-phenyl-3-arylprop-2-enylideneamino)guanidine Derivatives with Pro-Apoptotic Activity against Cancer Cells” (International Journal of Molecular Sciences, 2023)

What was measured:
Assay type in all cases: cell-based, human
[1] = system: MCF-7 cells; assay: Mitochondrial membrane potential (JC-1, flow cytometry), MCF-7; conditions: MCF-7, 72 h, 24 at 10 or 25 μM, 31 at 25 μM
Text: (§1) A decrease in mitochondrial potential is one of the earliest hallmarks of apoptosis. A common method for indication of cells with high and low Δψm is flow cytometry combined with specific fluorescent probes, such as JC-1 (5,5′,6,6′-tetrachloro-1,1′,3,3′-tetraethylbenzimidazolylcarbocyanine iodide). JC-1 accumulates in mitochondria and forms complexes (J aggregates) with red fluorescence in healthy cells with a normal ΔΨm, whereas in apoptotic cells with a low ΔΨm exists as a monomer with green fluorescence.
(§2) Analyzed cells were seeded into wells of a 24-well plate at a density of 5 × 10^4 cells in 1000 µL, incubated overnight, and then the medium was exchanged for dilutions of reagents 24 and 31. Before the end of 72 h of incubation, MitoProbe JC-1 (25 µM) was added into each plate well. Carbonyl cyanide m-chlorophenylhydrazone CCCP (200 nM) as the mitochondrial oxidative phosphorylation uncoupler was added into the positive control 15 min before JC-1 was added. After 30 min of JC-1 staining, cells were washed with PBS and then trypsinized (Corning® 25-053CI). Cells suspended in PBS were analyzed by flow cytometry at λ excitation (ex) = 488 nm and λ emission (em) = 525/570 nm (LSR II BD Biosciences, San Jose, CA, USA).

[2] = system: HeLa cells; assay: Phosphatidylserine translocation (Annexin V-FITC/PI), HeLa; conditions: 72 h, 24 at 10 or 25 μM, 31 at 25 μM
Text: (§3) One of the early indicators of apoptosis is the exposure of phosphatidylserine residues on the cell’s surface. Annexin V has a high affinity to phosphatidylserine and, as a conjugate to fluorescein isothiocyante (FITC), is widely used for detection of early apoptotic cells using flow cytometry. Detection of late-apoptotic or necrotic cells is achieved by using propidium iodide (PI) stain. Based on the obtained fluorescence, four subpopulations were found: PI-low/FITC-low (live cells), PI-high/FITC-low (necrotic cells), PI-low/FITC-high (early apoptotic cells), and PI-high/FITC-high (late apoptotic cells).
(§4) Analysis was performed using FITC-conjugated annexin-V (Annexin V-FITC Apoptosis Kit I, BD Biosciences, San Jose, CA, USA) according to the manufacturer’s instructions (BD Biosciences) as described previously. HeLa, MCF-7, and HCT-116, after seeding to 24-well plates (5 × 10^4/per well) and 24 h incubation, were treated for 72 h with 24 or 31 (10/25 µM or 25 µM concentration respectively). Following treatment, cells were washed in PBS, centrifuged, and then resuspended in a binding buffer. Afterward, the cells were incubated for 15 min at 37 °C with FITC-conjugated annexin-V and propidium iodide. The samples were then analyzed using a LSR II flow cytometer (BD Biosciences) using 530 ± 25 nm (Annexin V-FITC) and 575 ± 26 nm (PI).
(§5) The subpopulations were identified according to their fluorescence: PI-low/FITC-low (live cells), PI-high/FITC-low (necrotic cells), PI-low/FITC-high (early apoptotic cells), and PI-high/FITC-high (late apoptotic cells).

[3] = system: HCT-116 cells; assay: Cell cycle distribution by flow cytometry, HCT-116
Procedure: (§6) The cell cycle distribution was measured by flow cytometry analysis after incubation of MCF-7, HeLa, and HCT-116 with compounds 24 and 31 for 72 h.

[4] = system: HeLa cells; assay: Mitochondrial membrane potential (JC-1, flow cytometry), HeLa; conditions: 72 h, 24 at 10 or 25 μM, 31 at 25 μM
Text: as §1, §2

[5] = system: HCT-116 cells; assay: Phosphatidylserine translocation (Annexin V-FITC/PI), HCT-116; conditions: HCT-116, 72 h; 24 at 10 or 25 μM, 31 at 25 μM
Text: as §3, §4, §5

[6] = system: HCT-116 (colon cancer); assay: MTT cell viability assay, HCT-116; conditions: Homo sapiens, HCT-116; MTT, 72 h
Procedure: (§7) All chemicals, if not stated otherwise, were obtained from Sigma-Aldrich (St. Louis, MO, USA). The MCF-7 cell line was purchased from Cell Lines Services (Eppelheim, Germany), the HeLa and HCT-116 cell lines were obtained from the Department of Microbiology, Tumor and Cell Biology, Karolinska Institute (Stockholm, Sweden). Cells were cultured in Dulbecco’s modified Eagle’s medium (DMEM) supplemented with 10% fetal bovine serum, 2 mM glutamine, 100 units/mL penicillin, and 100 μg/mL streptomycin. Cultures were maintained in a humidified atmosphere with 5% CO2 at 37 °C in an incubator (HeraCell, Heraeus, Langenselbold, Germany).
(§8) Cell viability was determined using the MTT (3-(4,5-dimethylthiazol-2-yl)-2,5-diphenyl-tetrazoliumbromide) assay. Stock solutions of the studied compounds were prepared in 100% DMSO. […] Cells were seeded in 96-well plates at a density of 5 × 10^3 cells/well and treated for 72 h with the examined compounds in the concentration range 1–100 μM (1, 10, 25, 50, and 100 μM). Following treatment, MTT (0.5 mg/mL) was added to the medium and cells were further incubated for 2 h at 37 °C. Cells were lysed with DMSO and the absorbance of the formazan solution was measured at 550 nm with a plate reader (1420 multilabel counter, Victor, Jügesheim, Germany). […] The experiment was performed in triplicate. Values are expressed as the mean ± SD of at least three independent experiments.

[7] = system: MCF-7 (breast cancer); assay: MTT cell viability assay, MCF-7; conditions: Homo sapiens, MCF7; MTT, 72 h
Text: The cytotoxic activity of the compounds 8–33 has been evaluated in MTT assays against three human cancer cell lines MCF-7 (breast cancer), HeLa (cervical cancer), and HCT-116 (colon cancer) and it was expressed as IC50 values in μM (Table 1).
as §7, §8

[8] = system: HeLa (cervical cancer); assay: MTT cell viability assay, HeLa; conditions: Homo sapiens, HeLa; MTT, 72 h
Procedure: as §7, §8

[9] = system: MCF-7 cells; assay: Cell cycle distribution by flow cytometry, MCF-7
Procedure: as §6

[10] = system: HeLa cells; assay: Cell cycle distribution by flow cytometry, HeLa; conditions: 72 h
Procedure: as §6

[11] = system: HCT-116 cells; assay: Mitochondrial membrane potential (JC-1, flow cytometry), HCT-116; conditions: HCT-116, 72 h, 24 at 10 or 25 μM, 31 at 25 μM
Text: as §1, §2

[12] = system: MCF-7 cells; assay: Phosphatidylserine translocation (Annexin V-FITC/PI), MCF-7; conditions: MCF-7, 72 h; 24 at 10 or 25 μM, 31 at 25 μM
Text: as §3, §4, §5

- IC50 [6]: 365 ± 11 µM
- IC50 [7]: 230 ± 13 µM
- IC50 [8]: 110 ± 5 µM
SMILES: COc1ccc(C=CC(=NN=C(N)NS(=O)(=O)c2cc(C)c(Cl)cc2SCc2ccc(Cl)cc2)c2ccccc2)cc1 [Compound 31]
- change of mitochondrial membrane potential (ΔΨm) [1]: did not result in a loss of ΔΨm
- population of apoptotic cells (Annexin V-FITC/PI) [2]: did not cause statistically significant differences compared to the control
- cells in sub-G1 phase ([3]; HCT-116, 25 μM, 72 h, control 1.15%): 1.84%
- effect on cell cycle distribution ([3]; HCT-116, 72 h, 24 at 10 and 25 μM, 31 at 25 μM): does not substantially affect the cell cycle progression
- change of mitochondrial membrane potential (ΔΨm) [4]: did not result in a loss of ΔΨm
- population of apoptotic cells (Annexin V-FITC/PI) [5]: did not cause statistically significant differences compared to the control
- cells in sub-G1 phase ([9]; MCF-7, 25 μM, 72 h): 2.78%
- effect on cell cycle distribution ([9]; MCF-7, 72 h, 24 at 10 and 25 μM, 31 at 25 μM): does not substantially affect the cell cycle progression
- cells in sub-G1 phase ([10]; 25 μM, control 5.08%): 5.45%
- effect on cell cycle distribution ([10]; 24 at 10 and 25 μM, 31 at 25 μM): does not substantially affect the cell cycle progression
- change of mitochondrial membrane potential (ΔΨm) [11]: did not result in a loss of ΔΨm
- population of apoptotic cells (Annexin V-FITC/PI) [12]: did not cause statistically significant differences compared to the control
